Consider 3 compounds from patent US5032576A, “Method for controlling female moths using a peptide” (The United States of America as represented by the …, priority 1989, dated 1991).

In one assay the test system is L. dispar (gypsy moth). The following applies: cis-2-decyl-3-(5-methylhexyl) oxirane per female ± SE, N = 5; 5 pmoles injected. The protocol:
(§1) Bioassay procedure is described in Example 6. Each female was injected
(§2) of the synthetic peptide in 10 microliter of buffer. The major component
(§3) Dose response of the peptide of Formula I, wherein X is Asp and Y is Leu(NH2): the peptide was dissolved in sucrose phosphate buffer and injected into ligated 3-day-old females during scotophase. Pheromone was extracted 3 hr after injection and quantified by capillary gas chromatography.

Assay [1] concerns M. sexta (tobacco hornworm). The following applies: (E,Z)-10,12-hexadecadienal per female ± SE, N = 5; 5 pmoles injected. The protocol: as §1, §2, §3
Assay [2] concerns H. virescens (tobacco budworm). The following applies: (Z)-11-hexadecenal per female ± SE, N = 5; 5 pmoles injected. The protocol: as §1, §2, §3
In assay [3] the test system is S. frugiperda (fall armyworm). The settings on record: per female ± SE, N = 5; 5 pmoles injected. The protocol:
as §1, §2, §3

Assay [4] relates to D. nitidalis (pickle worm). The following applies: (E)-11-hexadecenal per female ± SE, N = 5; 5 pmoles injected. The protocol:
as §1, §2, §3

Assay [5] relates to O. nubilalis (European corn borer). The following applies: (E)-11-tetradecen-1-ol acetate per female ± SE, N = 5; 5 pmoles injected. The protocol: as §1, §2, §3
Assay [6] has as its system ligated females of six other species of moths. The protocol:
as §1, §2

The test system of assay [7] is third instar H. zea larvae. The protocol:
Peptide of the Formula I, wherein X is Asp and Y is Leu(NH2) was dissolved in sucrose phosphate buffer and serially diluted to obtain 0.1, 1.0, 10, 100, and 1000 pmoles/5 μL of buffer. The peptide was then injected into third instar H. zea larvae the day before their moult to fourth instar. Observations for melanization (intense black color formation) were recorded after 48 hr.

The next assay has as its system ligated H. zea females. Briefly: Pheromone production bioassay: injection into ligated H. zea females. It is filed as in vivo, Heliothis zea. The settings on record: for ng/Female H. zea (Z)-11-Hexadecenal: injected into ligated females.

Like-named read-outs stand apart in the source and are kept apart here. Where a SMILES comes first, the peptide text is derived from it.

`CC[C@H](C)[C@H](NC(=O)[C@H](CCC(N)=O)NC(=O)[C@H](CCC(=O)O)NC(=O)[C@@H]1CCCN1C(=O)[C@H](CC(=O)O)NC(=O)[C@H](CCC(N)=O)NC(=O)[C@H](CCCNC(=N)N)NC(=O)[C@H](Cc1ccc(O)cc1)NC(=O)[C@H](CCSC)NC(=O)[C@H](CCC(=O)O)NC(=O)[C@H](CCC(N)=O)NC(=O)[C@H](CC(=O)O)NC(=O)[C@H](C)NC(=O)[C@@H]1CCCN1C(=O)[C@@H](NC(=O)[C@H](C)NC(=O)[C@@H]1CCCN1C(=O)[C@H](CCSC)NC(=O)[C@H](CC(=O)O)NC(=O)[C@H](CC(=O)O)NC(=O)[C@H](CO)NC(=O)[C@@H](N)CC(C)C)[C@@H](C)O)C(=O)N[C@@H](CC(=O)O)C(=O)N[C@@H](CO)C(=O)N[C@@H](CCCNC(=N)N)C(=O)N[C@H](C(=O)N[C@@H](CCCCN)C(=O)N[C@@H](Cc1ccc(O)cc1)C(=O)N[C@@H](Cc1ccccc1)C(=O)N[C@@H](CO)C(=O)N1CCC[C@H]1C(=O)N[C@@H](CCCNC(=N)N)C(=O)N[C@@H](CC(C)C)C(N)=O)[C@@H](C)O` [Compound 1] (H-LSDDMPATPADQEMYRQDPEQIDSRTKYFSPRL-NH2): the “Quantity of the Major Component in the Pheromone of Hex-PBAN injected Female” value stood at 2.5 ± 0.4 ng in the assay on L. dispar (gypsy moth); 65.4 ± 11.9 ng in [1]; 189.2 ± 12.2 ng in [2]; 42.9 ± 12.2 ng in assay [3]; 49.2 ± 16.3 ng in [4]; 6.7 ± 1.1 ng in assay [5]. Moreover, the “quantity of pheromone produced relative to that found in normal females” value in assay [6] (in two of the six species) was 6-7 times. For the same compound, the “production of their respective pheromones” value in [6] (injected into ligated females of six other species) is listed as “significant amounts”. The melanization is on record as 100% in assay [7] (10 pmole dose, recorded after 48 hr) and “intense melanization” in assay [7] (10 pmoles/larva, after the moult to the fourth instar). The mortality result in [7] (10 pmoles/larva, associated with melanization) is reported as “significant mortality”. For the same compound, the “ng/Female H. zea (Z)-11-Hexadecenal” value in the assay with ligated H. zea females (Dose 1.0 pMole) is on record as 4.6 ng/Female; with ligated H. zea females (Dose 10.0 pMole), 128.2 ng/Female; with ligated H. zea females (Dose 100.0 pMole), 179.9 ng/Female. In addition, the “pheromone production at doses greater than 4.0 pmoles” value in the assay with ligated H. zea females (doses greater than 4.0 pmoles) is on record as “significant decrease”. In addition, the “production of the sex pheromone” value in the assay on ligated H. zea females (injected into ligated H. zea females) is reported as “normal production”.

In the case of `CC[C@H](C)[C@H](NC(=O)[C@H](CCC(N)=O)NC(=O)[C@H](CCC(=O)O)NC(=O)[C@@H]1CCCN1C(=O)[C@H](CC(=O)O)NC(=O)[C@H](CCC(N)=O)NC(=O)[C@H](CCCNC(=N)N)NC(=O)[C@H](Cc1ccc(O)cc1)NC(=O)[C@H](CCSC)NC(=O)[C@H](CCC(=O)O)NC(=O)[C@H](CCC(N)=O)NC(=O)[C@H](CC(=O)O)NC(=O)[C@H](C)NC(=O)[C@@H]1CCCN1C(=O)[C@@H](NC(=O)[C@H](C)NC(=O)[C@@H]1CCCN1C(=O)[C@H](CCSC)NC(=O)[C@H](CC(=O)O)NC(=O)[C@H](CC(=O)O)NC(=O)[C@H](CO)NC(=O)[C@@H](N)CC(C)C)[C@@H](C)O)C(=O)N[C@@H](CC(N)=O)C(=O)N[C@@H](CO)C(=O)N[C@@H](CCCNC(=N)N)C(=O)N[C@H](C(=O)N[C@@H](CCCCN)C(=O)N[C@@H](Cc1ccc(O)cc1)C(=O)N[C@@H](Cc1ccccc1)C(=O)N[C@@H](CO)C(=O)N1CCC[C@H]1C(=O)N[C@@H](CCCNC(=N)N)C(=O)N[C@@H](CC(C)C)C(N)=O)[C@@H](C)O` [Compound 3] (H-LSDDMPATPADQEMYRQDPEQINSRTKYFSPRL-NH2), the “ng/Female H. zea (Z)-11-Hexadecenal” value in the assay with ligated H. zea females (Dose 1.0 pMole) is on record as 1.7 ng/Female; with ligated H. zea females (Dose 10.0 pMole), 97.1 ng/Female; in the assay with ligated H. zea females (Dose 100.0 pMole), 145.7 ng/Female.

Regarding `CC[C@H](C)[C@H](NC(=O)[C@H](CCC(N)=O)NC(=O)[C@H](CCC(=O)O)NC(=O)[C@@H]1CCCN1C(=O)[C@H](CC(=O)O)NC(=O)[C@H](CCC(N)=O)NC(=O)[C@H](CCCNC(=N)N)NC(=O)[C@H](Cc1ccc(O)cc1)NC(=O)[C@H](CCSC)NC(=O)[C@H](CCC(=O)O)NC(=O)[C@H](CCC(N)=O)NC(=O)[C@H](CC(=O)O)NC(=O)[C@H](C)NC(=O)[C@@H]1CCCN1C(=O)[C@@H](NC(=O)[C@H](C)NC(=O)[C@@H]1CCCN1C(=O)[C@H](CCSC)NC(=O)[C@H](CC(=O)O)NC(=O)[C@H](CC(=O)O)NC(=O)[C@H](CO)NC(=O)[C@@H](N)CC(C)C)[C@@H](C)O)C(=O)N[C@@H](CC(N)=O)C(=O)N[C@@H](CO)C(=O)N[C@@H](CCCNC(=N)N)C(=O)N[C@H](C(=O)N[C@@H](CCCCN)C(=O)N[C@@H](Cc1ccc(O)cc1)C(=O)N[C@@H](Cc1ccccc1)C(=O)N[C@@H](CO)C(=O)N1CCC[C@H]1C(=O)N[C@@H](CCCNC(=N)N)C(=O)N[C@@H](CC(C)C)C(=O)O)[C@@H](C)O` [Compound 4] (H-LSDDMPATPADQEMYRQDPEQINSRTKYFSPRL-OH), the “ng/Female H. zea (Z)-11-Hexadecenal” value worked out at 0.9 ng/Female in the assay with ligated H. zea females (Dose 10.0 pMole), 3.2 ng/Female in the assay on ligated H. zea females (Dose 100.0 pMole) and 112.1 ng/Female in the assay on ligated H. zea females (Dose 1000.0 pMole).
